Assay results: ChEMBL document CHEMBL1201862, “PubChem BioAssay data set” (2004)
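Five concentrations, 48 hours, 96-well plates. GI50: concentration for 50% inhibition of growth.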 Active and inactive are the calls of the source. Cut-off read from the data, not from the text of the source: active = GI50 up to about 1.1 µM and inactive = higher.

Legend:
Test in all cases: NCI anticancer screen, dose series, 48 h
A498 = test system: A498
CAKI-1 = test system: CAKI-1
HOP-62 = test system: HOP-62
IGROV-1 = test system: IGROV-1
KM12 = test system: KM12
Malme-3M = test system: Malme-3M
NCI-H460 = test system: NCI-H460
OVCAR-3 = test system: OVCAR-3
OVCAR-5 = test system: OVCAR-5
OVCAR-8 = test system: OVCAR-8
SF-268 = test system: SF-268
SK-MEL-28 = test system: SK-MEL-28
SK-MEL-5 = test system: SK-MEL-5
UACC-257 = test system: UACC-257
UACC-62 = test system: UACC-62

Measured: GI50

OC1CC1Sc1ccccc1 (stereo unspecified)
inactive: A498 71.8 µM | CAKI-1 73.3 µM | HOP-62 43 µM | IGROV-1 23.7 µM | KM12 34 µM | Malme-3M 95.1 µM | NCI-H460 65.2 µM | OVCAR-3 25.4 µM | OVCAR-5 95.3 µM | OVCAR-8 28.4 µM | SF-268 18.6 µM | SK-MEL-28 22.1 µM | SK-MEL-5 31.6 µM | UACC-257 52.5 µM | UACC-62 33.3 µM

OCCN(CCO)c1ncnc2c1sc(=S)n2-c1ccccc1
inactive: A498 46 µM | CAKI-1 > 100 µM | HOP-62 > 100 µM | IGROV-1 > 100 µM | KM12 > 100 µM | Malme-3M > 100 µM | NCI-H460 > 100 µM | OVCAR-3 > 100 µM | OVCAR-5 > 100 µM | OVCAR-8 > 100 µM | SF-268 > 100 µM | SK-MEL-28 > 100 µM | SK-MEL-5 > 100 µM | UACC-257 > 100 µM | UACC-62 > 100 µM

C/C(CC(=O)Nc1ccc(C)c(C)c1)=N\NC(N)=O
inactive: A498 > 100 µM | HOP-62 > 100 µM | IGROV-1 > 100 µM | KM12 > 100 µM | Malme-3M > 100 µM | NCI-H460 > 100 µM | OVCAR-3 > 100 µM | OVCAR-5 > 100 µM | OVCAR-8 > 100 µM | SF-268 > 100 µM | SK-MEL-28 > 100 µM | SK-MEL-5 > 100 µM | UACC-257 > 100 µM | UACC-62 > 100 µM

C/C(=N\NC(=N)N)C(CN1CCOCC1)C(c1ccccc1)c1c(O)c2ccccc2oc1=O (stereo unspecified)
inactive: CAKI-1 > 100 µM | HOP-62 > 100 µM | IGROV-1 > 100 µM | KM12 > 100 µM | Malme-3M 25.9 µM | NCI-H460 > 100 µM | OVCAR-3 > 100 µM | OVCAR-5 > 100 µM | OVCAR-8 > 100 µM | SF-268 > 100 µM | SK-MEL-28 > 100 µM | SK-MEL-5 > 100 µM | UACC-257 > 100 µM | UACC-62 81.3 µM

Cn1c2cc([N+](=O)[O-])ccc2c(=O)c2c(O)cc3c(c21)C=CC(C)(C)O3
inactive: A498 33.5 µM | CAKI-1 60.5 µM | IGROV-1 31.1 µM | KM12 > 100 µM | Malme-3M > 100 µM | NCI-H460 > 100 µM | OVCAR-5 32 µM | OVCAR-8 59.3 µM | SF-268 35.1 µM | SK-MEL-28 > 100 µM | SK-MEL-5 > 100 µM | UACC-257 > 100 µM | UACC-62 25.1 µM

CCOC(=O)C1=C(C)N(NC(=O)Nc2ccccc2)C2(N)N(NC(=O)Nc3ccccc3)C(C)=C(C(=O)OCC)C12C#N (stereo unspecified)
inactive: A498 22.3 µM | CAKI-1 19.2 µM | IGROV-1 19.7 µM | Malme-3M 15.5 µM | NCI-H460 17.8 µM | OVCAR-3 17.5 µM | OVCAR-5 17.8 µM | OVCAR-8 18.5 µM | SF-268 19.9 µM | SK-MEL-28 16.9 µM | UACC-257 23.7 µM | UACC-62 17.5 µM

N#Cc1ccc(Nc2cnc3cc(N)ccc3n2)cc1
inactive: CAKI-1 66.5 µM | HOP-62 > 100 µM | KM12 > 100 µM | Malme-3M > 100 µM | NCI-H460 58.1 µM | OVCAR-3 95.9 µM | OVCAR-5 > 100 µM | OVCAR-8 > 100 µM | SF-268 > 100 µM | SK-MEL-28 > 100 µM | SK-MEL-5 > 100 µM | UACC-257 > 100 µM | UACC-62 83.4 µM

Cc1nc2c(n1CC(C)(C)C)C(=O)c1ccccc1C2=O
inactive: HOP-62 > 100 µM | IGROV-1 > 100 µM | KM12 > 100 µM | Malme-3M 76.9 µM | NCI-H460 58.6 µM | OVCAR-3 66.7 µM | OVCAR-8 > 100 µM | SF-268 > 100 µM | SK-MEL-28 > 100 µM | SK-MEL-5 43.1 µM | UACC-257 80.7 µM | UACC-62 89.5 µM

Cc1nc(Nc2ccccc2)sc1C(=O)CC(=O)C(=O)NC12CC3CC(CC(C3)C1)C2
inactive: CAKI-1 65.2 µM | HOP-62 83.2 µM | IGROV-1 84.5 µM | KM12 > 100 µM | Malme-3M > 100 µM | NCI-H460 > 100 µM | OVCAR-3 > 100 µM | OVCAR-5 > 100 µM | OVCAR-8 > 100 µM | SF-268 > 100 µM | SK-MEL-28 > 100 µM | SK-MEL-5 74.5 µM | UACC-257 > 100 µM | UACC-62 41.4 µM

CNS(=O)(=O)NNS(=O)(=O)c1cccc([N+](=O)[O-])c1
inactive: CAKI-1 > 100 µM | HOP-62 > 100 µM | IGROV-1 > 100 µM | KM12 > 100 µM | Malme-3M > 100 µM | NCI-H460 > 100 µM | OVCAR-3 > 100 µM | OVCAR-8 > 100 µM | SK-MEL-5 > 100 µM | UACC-257 > 100 µM | UACC-62 > 100 µM

CC1=NN(C(=O)c2ccncc2)C(=O)C1/N=N/c1ccc(F)cc1 (stereo unspecified)
inactive: A498 60.5 µM | CAKI-1 > 100 µM | IGROV-1 > 100 µM | Malme-3M > 100 µM | NCI-H460 > 100 µM | OVCAR-3 > 100 µM | OVCAR-5 > 100 µM | OVCAR-8 > 100 µM | SF-268 > 100 µM | SK-MEL-28 > 100 µM | SK-MEL-5 > 100 µM | UACC-257 > 100 µM | UACC-62 > 100 µM

Cc1ccc(/C=C/C(=O)c2sc(-c3cccnc3)nc2C)cc1
inactive: A498 > 100 µM | CAKI-1 > 100 µM | HOP-62 > 100 µM | IGROV-1 > 100 µM | KM12 > 100 µM | Malme-3M > 100 µM | NCI-H460 > 100 µM | OVCAR-3 > 100 µM | OVCAR-5 > 100 µM | OVCAR-8 > 100 µM | SK-MEL-5 > 100 µM | UACC-257 > 100 µM | UACC-62 > 100 µM

Cc1nc2nnc(C)n2c2c1C(=O)Nc1ccccc1N2
inactive: HOP-62 > 100 µM | IGROV-1 > 100 µM | KM12 > 100 µM | Malme-3M > 100 µM | NCI-H460 > 100 µM | OVCAR-3 > 100 µM | OVCAR-8 > 100 µM | SF-268 > 100 µM | SK-MEL-28 > 100 µM | UACC-257 > 100 µM | UACC-62 > 100 µM

Cc1cc2c(c(C(N)=O)c1C)-c1cc(Cl)cc(Cl)c1C2=O
inactive: A498 54.6 µM | HOP-62 > 100 µM | IGROV-1 > 100 µM | KM12 > 100 µM | Malme-3M > 100 µM | NCI-H460 > 100 µM | OVCAR-3 > 100 µM | OVCAR-5 > 100 µM | OVCAR-8 37.7 µM | SF-268 97.7 µM | SK-MEL-28 > 100 µM | UACC-257 > 100 µM | UACC-62 > 100 µM

NCCNc1cccc2ccccc12
inactive: A498 > 100 µM | CAKI-1 > 100 µM | HOP-62 > 100 µM | IGROV-1 > 100 µM | KM12 > 100 µM | Malme-3M > 100 µM | NCI-H460 > 100 µM | OVCAR-3 > 100 µM | OVCAR-5 > 100 µM | OVCAR-8 > 100 µM | SF-268 > 100 µM | UACC-257 > 100 µM | UACC-62 > 100 µM
